Data from patent US20050100588A1, “Self-adhesive matrix plaster containing an active ingredient and based on polyurethane gels” (Beiersdorf AG, priority 2001, published 2005).

Assay: Active ingredient release of NVA to pig's skin
Format: in vitro ADME
Conditions: pig's skin, 2, 4, 6, 8 and 24 hours, FIG. 7
Protocol: For investigating the release characteristics, specimens on pig's skin are prepared and the release is determined quantitatively after 24 hours.
In order to investigate the release characteristics, samples on pig's skin are prepared and the release is determined quantitatively after 2, 4, 6, 8 and 24 hours. […] From this it is clear that the active ingredient is delivered in a controlled, sustained manner into the skin to develop its activity there.

**Q.** Which “quantity of NVA released in total to epidermis and dermis, course over time” value does the source give for `CCCCCCCCC(=O)NCc1ccc(O)c(OC)c1` [NVA, Nonivamide] here?
**A.** The value was “uniform, linear increase”.
